{"source": "patent US9340590B2", "about": "(priority 2011, dated 2016)", "assay_in_all_cases": "cell-based", "key": {"hNav1.7": {"target": "hNav1.7 (Homo sapiens, UniProt Q15858)", "format": "cell-based"}, "hNav1.5": {"target": "hNav1.5 (Homo sapiens, UniProt Q14524)", "sequence (Q14524 whole entry, looked up)": "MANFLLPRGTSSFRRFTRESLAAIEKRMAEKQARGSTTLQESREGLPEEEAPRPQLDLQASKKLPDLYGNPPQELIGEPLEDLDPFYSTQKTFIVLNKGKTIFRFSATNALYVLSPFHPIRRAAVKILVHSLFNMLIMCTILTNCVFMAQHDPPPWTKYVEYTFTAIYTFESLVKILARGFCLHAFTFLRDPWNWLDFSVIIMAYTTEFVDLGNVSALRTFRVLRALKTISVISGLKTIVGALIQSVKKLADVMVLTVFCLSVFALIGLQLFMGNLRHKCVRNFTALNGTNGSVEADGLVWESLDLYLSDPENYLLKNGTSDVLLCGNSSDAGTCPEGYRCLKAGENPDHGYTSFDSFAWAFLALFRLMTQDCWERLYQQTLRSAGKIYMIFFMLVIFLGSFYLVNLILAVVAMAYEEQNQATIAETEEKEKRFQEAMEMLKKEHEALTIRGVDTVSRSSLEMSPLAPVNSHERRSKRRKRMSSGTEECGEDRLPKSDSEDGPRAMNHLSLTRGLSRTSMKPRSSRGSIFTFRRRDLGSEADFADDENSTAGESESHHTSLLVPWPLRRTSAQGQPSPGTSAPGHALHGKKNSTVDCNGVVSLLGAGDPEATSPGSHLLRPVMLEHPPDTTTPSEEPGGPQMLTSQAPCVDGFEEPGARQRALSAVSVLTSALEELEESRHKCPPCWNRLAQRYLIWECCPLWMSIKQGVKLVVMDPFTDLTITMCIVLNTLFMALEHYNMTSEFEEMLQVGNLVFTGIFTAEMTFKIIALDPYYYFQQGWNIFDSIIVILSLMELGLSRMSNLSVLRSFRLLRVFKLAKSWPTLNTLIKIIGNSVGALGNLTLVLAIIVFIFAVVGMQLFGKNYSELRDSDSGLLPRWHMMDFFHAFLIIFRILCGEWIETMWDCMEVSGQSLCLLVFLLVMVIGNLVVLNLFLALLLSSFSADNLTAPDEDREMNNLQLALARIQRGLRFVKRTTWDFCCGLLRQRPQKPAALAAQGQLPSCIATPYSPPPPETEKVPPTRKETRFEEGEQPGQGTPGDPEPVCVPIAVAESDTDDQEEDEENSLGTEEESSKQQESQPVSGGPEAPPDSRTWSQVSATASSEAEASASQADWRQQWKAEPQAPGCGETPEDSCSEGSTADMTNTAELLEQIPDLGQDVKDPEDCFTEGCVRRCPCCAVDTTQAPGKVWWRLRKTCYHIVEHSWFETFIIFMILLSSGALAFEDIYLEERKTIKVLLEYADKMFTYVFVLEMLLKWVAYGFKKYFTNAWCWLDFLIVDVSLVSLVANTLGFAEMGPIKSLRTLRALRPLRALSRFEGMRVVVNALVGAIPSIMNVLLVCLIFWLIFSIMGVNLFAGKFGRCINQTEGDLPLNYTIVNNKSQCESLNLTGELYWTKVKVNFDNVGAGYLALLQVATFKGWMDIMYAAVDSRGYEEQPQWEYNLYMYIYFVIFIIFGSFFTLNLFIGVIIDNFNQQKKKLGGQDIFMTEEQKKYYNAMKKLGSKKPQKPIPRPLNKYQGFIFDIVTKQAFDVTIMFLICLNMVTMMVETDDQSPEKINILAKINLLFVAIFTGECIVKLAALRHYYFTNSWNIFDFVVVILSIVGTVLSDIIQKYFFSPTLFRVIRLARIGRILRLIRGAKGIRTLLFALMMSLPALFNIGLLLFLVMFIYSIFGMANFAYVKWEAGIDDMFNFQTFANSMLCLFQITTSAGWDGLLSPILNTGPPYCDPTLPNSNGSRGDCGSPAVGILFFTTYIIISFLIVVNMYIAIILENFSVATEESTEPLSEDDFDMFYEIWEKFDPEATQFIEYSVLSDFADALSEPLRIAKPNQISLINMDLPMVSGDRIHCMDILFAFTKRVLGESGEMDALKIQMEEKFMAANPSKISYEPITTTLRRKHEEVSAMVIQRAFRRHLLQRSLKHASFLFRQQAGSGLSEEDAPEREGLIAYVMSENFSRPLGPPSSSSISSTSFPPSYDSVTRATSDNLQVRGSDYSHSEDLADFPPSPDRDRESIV"}, "hNav1.3": {"target": "hNav1.3 (Homo sapiens, UniProt Q9NY46)", "sequence (Q9NY46 whole entry, looked up)": "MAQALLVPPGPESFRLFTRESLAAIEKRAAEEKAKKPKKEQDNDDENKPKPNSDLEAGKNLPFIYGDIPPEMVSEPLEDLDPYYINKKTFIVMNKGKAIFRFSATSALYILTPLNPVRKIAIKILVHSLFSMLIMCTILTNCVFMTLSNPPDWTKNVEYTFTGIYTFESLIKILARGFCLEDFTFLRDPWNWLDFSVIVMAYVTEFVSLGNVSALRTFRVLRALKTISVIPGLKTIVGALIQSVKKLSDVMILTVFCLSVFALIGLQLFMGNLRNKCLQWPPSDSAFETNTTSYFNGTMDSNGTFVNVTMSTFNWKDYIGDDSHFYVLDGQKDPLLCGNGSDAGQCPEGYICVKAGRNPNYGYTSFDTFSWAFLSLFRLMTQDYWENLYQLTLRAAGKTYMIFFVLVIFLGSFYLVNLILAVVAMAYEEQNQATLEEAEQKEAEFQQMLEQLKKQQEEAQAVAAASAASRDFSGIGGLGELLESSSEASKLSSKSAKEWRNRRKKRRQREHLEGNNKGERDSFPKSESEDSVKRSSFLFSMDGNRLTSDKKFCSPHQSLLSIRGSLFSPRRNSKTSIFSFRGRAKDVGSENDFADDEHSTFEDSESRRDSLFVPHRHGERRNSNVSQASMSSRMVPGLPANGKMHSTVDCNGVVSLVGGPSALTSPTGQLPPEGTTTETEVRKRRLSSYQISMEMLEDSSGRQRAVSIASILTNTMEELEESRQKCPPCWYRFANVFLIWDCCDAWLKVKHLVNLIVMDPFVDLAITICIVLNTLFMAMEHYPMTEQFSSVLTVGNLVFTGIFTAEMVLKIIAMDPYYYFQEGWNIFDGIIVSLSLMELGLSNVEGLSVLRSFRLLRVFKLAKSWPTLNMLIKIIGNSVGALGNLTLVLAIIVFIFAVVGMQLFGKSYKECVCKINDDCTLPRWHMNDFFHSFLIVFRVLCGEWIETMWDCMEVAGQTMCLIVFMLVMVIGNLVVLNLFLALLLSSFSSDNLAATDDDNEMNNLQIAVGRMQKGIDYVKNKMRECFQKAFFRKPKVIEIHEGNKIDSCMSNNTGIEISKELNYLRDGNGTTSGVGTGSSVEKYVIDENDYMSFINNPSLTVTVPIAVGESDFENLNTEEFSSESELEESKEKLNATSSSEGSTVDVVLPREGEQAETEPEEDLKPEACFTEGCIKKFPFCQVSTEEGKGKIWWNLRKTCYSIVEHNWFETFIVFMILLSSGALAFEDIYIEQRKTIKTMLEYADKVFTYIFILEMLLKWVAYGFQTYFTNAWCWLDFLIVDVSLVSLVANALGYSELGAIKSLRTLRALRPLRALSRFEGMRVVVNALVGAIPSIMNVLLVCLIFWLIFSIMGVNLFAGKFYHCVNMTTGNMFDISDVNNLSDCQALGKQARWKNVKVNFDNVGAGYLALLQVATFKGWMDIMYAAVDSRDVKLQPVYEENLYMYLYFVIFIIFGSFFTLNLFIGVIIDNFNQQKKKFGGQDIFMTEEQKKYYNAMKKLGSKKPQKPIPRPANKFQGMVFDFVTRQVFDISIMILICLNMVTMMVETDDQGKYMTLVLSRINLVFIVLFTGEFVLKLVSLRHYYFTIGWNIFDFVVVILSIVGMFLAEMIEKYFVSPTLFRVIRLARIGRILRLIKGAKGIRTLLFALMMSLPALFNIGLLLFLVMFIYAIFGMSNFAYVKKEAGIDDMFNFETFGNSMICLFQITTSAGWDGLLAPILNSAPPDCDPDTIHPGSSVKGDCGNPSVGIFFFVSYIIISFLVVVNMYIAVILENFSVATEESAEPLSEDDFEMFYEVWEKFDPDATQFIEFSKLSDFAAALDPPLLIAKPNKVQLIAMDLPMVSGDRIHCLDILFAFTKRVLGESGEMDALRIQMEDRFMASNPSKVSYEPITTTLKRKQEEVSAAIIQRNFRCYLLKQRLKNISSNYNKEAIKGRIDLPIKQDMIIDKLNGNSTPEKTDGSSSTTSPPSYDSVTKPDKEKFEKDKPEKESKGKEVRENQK"}, "[1]": {"settings": "IonWorks Quattro, clamped to −110 mV, depolarized to −10 mV, 5 min after compound, n=2, read-out: IWQ Use Nav1.7"}, "[2]": {"settings": "IonWorks Quattro, clamped to −110 mV, depolarized to −10 mV, 5 min after compound, n=2, read-out: IWQ Use Nav1.5"}, "[3]": {"settings": "IonWorks Quattro, clamped to −110 mV, depolarized to −10 mV, 5 min after compound, n=2, read-out: IWQ Use Nav1.3"}}, "note": "Read-outs that look alike come from different tables or passages of the source. Positions of bridges follow the written chain, without caps; N, C: chain ends. Non-standard residues stand in square brackets, D forms with d. Residues, ends and D or L forms follow the SMILES beside them. Phe(4-Me) = Cc1ccc(C[C@H](N)C(=O)O)cc1", "data": [{"smiles": "CC[C@H](C)[C@@H]1NC(=O)[C@@H]2CSSC[C@@H]3NC(=O)[C@H](C(C)C)NC(=O)[C@H](CC(C)C)NC(=O)[C@H](CC(N)=O)NC(=O)[C@@H]4CCCN4C(=O)[C@H](CCCNC(=N)N)NC(=O)[C@H](CSSC[C@H](NC(=O)[C@@H](N)CC(=O)O)C(=O)N[C@@H](CC(C)C)C(=O)NCC(=O)N[C@@H](C)C(=O)N[C@@H](CCSC)C(=O)N[C@@H](CCC(=O)O)C(=O)N[C@@H](CCCCN)C(=O)N2)NC(=O)[C@H](CSSC[C@@H](C(=O)N[C@@H](CCCCN)C(=O)N[C@@H](Cc2ccc(O)cc2)C(=O)N[C@H](C(=O)N[C@@H](Cc2ccccc2)C(N)=O)C(C)C)NC(=O)[C@H](Cc2c[nH]c4ccccc24)NC(=O)[C@H](CCCCN)NC(=O)[C@H](Cc2c[nH]cn2)NC(=O)[C@H]([C@@H](C)O)NC(=O)[C@H](CCCNC(=N)N)NC(=O)[C@H](CO)NC3=O)NC(=O)[C@H](CCCCN)NC(=O)[C@H](CC(=O)O)NC(=O)[C@H](CC(N)=O)NC(=O)[C@H](CC(=O)O)NC(=O)[C@@H]2CCCN2C1=O", "note": "[compound 436] (H-DCLGAMEKCIPDNDKCCRPNLVCSRTHKWCKYVF-NH2; disulfide 2-17, 9-23, 16-30)", "values": [{"measurement": "IC50", "setting": "hNav1.7; IonWorks Quattro, use-dependent block, hNav1.7, read-out: IWQ Use Nav1.7", "value": "> 5000", "unit": "nM"}, {"measurement": "IC50", "setting": "hNav1.5; IonWorks Quattro, use-dependent block, hNav1.5, read-out: IWQ Use Nav1.5", "value": "> 5", "unit": "µM"}, {"measurement": "IC50", "setting": "hNav1.3; IonWorks Quattro, use-dependent block, hNav1.3, read-out: IWQ Use Nav1.3", "value": "> 5000", "unit": "nM"}]}, {"smiles": "CC[C@H](C)[C@@H]1NC(=O)[C@@H]2CSSC[C@@H]3NC(=O)[C@H](C(C)C)NC(=O)[C@H](CC(C)C)NC(=O)[C@H](CC(N)=O)NC(=O)[C@@H]4CCCN4C(=O)[C@H](CCCNC(=N)N)NC(=O)[C@H](CSSC[C@H](NC(=O)[C@@H](N)CC(=O)O)C(=O)N[C@@H](CC(C)C)C(=O)NCC(=O)N[C@@H](Cc4ccc(C)cc4)C(=O)N[C@@H](Cc4ccccc4)C(=O)N[C@@H](CCCNC(=N)N)C(=O)N[C@@H](CCCCN)C(=O)N2)NC(=O)[C@H](CSSC[C@@H](C(=O)N[C@@H](CCCCN)C(=O)N[C@@H](Cc2ccc(O)cc2)C(=O)N[C@H](C(=O)N[C@@H](Cc2ccccc2)C(N)=O)C(C)C)NC(=O)[C@H](Cc2c[nH]c4ccccc24)NC(=O)[C@H](CCCCN)NC(=O)[C@H](Cc2c[nH]cn2)NC(=O)[C@H]([C@@H](C)O)NC(=O)[C@H](CCCNC(=N)N)NC(=O)[C@H](CO)NC3=O)NC(=O)[C@H](CCCCN)NC(=O)[C@H](CC(=O)O)NC(=O)[C@H](CC(N)=O)NC(=O)[C@H](CC(=O)O)NC(=O)[C@@H]2CCCN2C1=O", "note": "[compound 625] (H-DCLG[Phe(4-Me)]FRKCIPDNDKCCRPNLVCSRTHKWCKYVF-NH2; disulfide 2-17, 9-23, 16-30)", "values": [{"measurement": "IC50", "setting": "hNav1.7; IonWorks Quattro, use-dependent protocol, hNav1.7, read-out: IWQ Use Nav1.7", "value": 63, "unit": "nM"}, {"measurement": "IC50", "setting": "hNav1.5; IonWorks Quattro, use-dependent protocol, hNav1.5, read-out: IWQ Use Nav1.5", "value": 6.5, "unit": "µM"}, {"measurement": "IC50", "setting": "hNav1.3; IonWorks Quattro, use-dependent protocol, hNav1.3, read-out: IWQ Use Nav1.3", "value": 51, "unit": "nM"}]}, {"smiles": "CC[C@H](C)[C@@H]1NC(=O)[C@@H]2CSSC[C@@H]3NC(=O)[C@H](Cc4ccc(O)cc4)NC(=O)[C@H](CC(C)C)NC(=O)[C@H](CC(N)=O)NC(=O)[C@@H]4CCCN4C(=O)[C@H](CCCNC(=N)N)NC(=O)[C@H](CSSC[C@H](NC(=O)[C@@H](N)CC(=O)O)C(=O)N[C@@H](CC(C)C)C(=O)NCC(=O)N[C@@H](Cc4ccccc4)C(=O)N[C@@H](CCSC)C(=O)N[C@@H](CCCNC(=N)N)C(=O)N[C@@H](CCCCN)C(=O)N2)NC(=O)[C@H](CSSC[C@@H](C(=O)N[C@@H](CCCCN)C(=O)N[C@@H](Cc2ccc(O)cc2)C(=O)N[C@H](C(=O)N[C@@H](Cc2ccccc2)C(N)=O)C(C)C)NC(=O)[C@H](Cc2c[nH]c4ccccc24)NC(=O)[C@H](CCCCN)NC(=O)[C@H](Cc2c[nH]cn2)NC(=O)[C@H]([C@@H](C)O)NC(=O)[C@H](CCCNC(=N)N)NC(=O)[C@H](CO)NC3=O)NC(=O)[C@H](CCCCN)NC(=O)[C@H](CC(=O)O)NC(=O)[C@H](CC(N)=O)NC(=O)[C@H](CC(=O)O)NC(=O)[C@@H]2CCCN2C1=O", "note": "[compound 331] (H-DCLGFMRKCIPDNDKCCRPNLYCSRTHKWCKYVF-NH2; disulfide 2-17, 9-23, 16-30)", "values": [{"measurement": "IC50", "setting": "hNav1.7; IonWorks Quattro, Use, read-out: IWQ Use Nav1.7", "value": 560, "unit": "nM"}, {"measurement": "IC50", "setting": "hNav1.5; IonWorks Quattro, Use, read-out: IWQ Use Nav1.5", "value": 4.26, "unit": "µM"}, {"measurement": "IC50", "setting": "hNav1.3; IonWorks Quattro, Use, read-out: IWQ Use Nav1.3", "value": 500, "unit": "nM"}]}, {"smiles": "CC[C@H](C)[C@@H]1NC(=O)[C@@H]2CSSC[C@@H]3NC(=O)[C@H](C(C)C)NC(=O)[C@H](CC(C)C)NC(=O)[C@H](CC(N)=O)NC(=O)[C@@H]4CCCN4C(=O)[C@H](CCCNC(=N)N)NC(=O)[C@H](CSSC[C@H](NC(=O)[C@@H](N)CC(=O)O)C(=O)N[C@@H](CC(C)C)C(=O)NCC(=O)N[C@@H](Cc4ccccc4)C(=O)N[C@@H](Cc4cn(C)c5ccccc45)C(=O)N[C@@H](CCCNC(=N)N)C(=O)N[C@@H](CCCCN)C(=O)N2)NC(=O)[C@H](CSSC[C@@H](C(=O)N[C@@H](CCCCN)C(=O)N[C@@H](Cc2ccc(O)cc2)C(=O)N[C@H](C(=O)N[C@@H](Cc2ccccc2)C(N)=O)C(C)C)NC(=O)[C@H](Cc2c[nH]c4ccccc24)NC(=O)[C@H](CCCCN)NC(=O)[C@H](Cc2c[nH]cn2)NC(=O)[C@H]([C@@H](C)O)NC(=O)[C@H](CCCNC(=N)N)NC(=O)[C@H](CO)NC3=O)NC(=O)[C@H](CCCCN)NC(=O)[C@H](CC(=O)O)NC(=O)[C@H](CC(N)=O)NC(=O)[C@H](CC(=O)O)NC(=O)[C@@H]2CCCN2C1=O", "note": "[SEQ ID NO: 292]", "values": [{"measurement": "IC50", "setting": "hNav1.7; [1]", "value": 40, "unit": "nM"}, {"measurement": "IC50", "setting": "hNav1.5; [2]", "value": 5.66, "unit": "µM"}, {"measurement": "IC50", "setting": "hNav1.3; [3]", "value": 30, "unit": "nM"}]}, {"smiles": "CC[C@H](C)[C@@H]1NC(=O)[C@@H]2CSSC[C@@H]3NC(=O)[C@H](C(C)C)NC(=O)[C@H](CC(C)C)NC(=O)[C@H](CC(N)=O)NC(=O)[C@@H]4CCCN4C(=O)[C@H](CCCNC(=N)N)NC(=O)[C@H](CSSC[C@H](NC(=O)[C@@H](N)CC(=O)O)C(=O)N[C@@H](CC(C)C)C(=O)NCC(=O)N[C@@H](Cc4ccc5ccccc5c4)C(=O)N[C@@H](CCSC)C(=O)N[C@@H](CCCNC(=N)N)C(=O)N[C@@H](CCCCN)C(=O)N2)NC(=O)[C@H](CSSC[C@@H](C(=O)N[C@@H](CCCCN)C(=O)N[C@@H](Cc2ccc(O)cc2)C(=O)N[C@H](C(=O)N[C@@H](Cc2ccccc2)C(N)=O)C(C)C)NC(=O)[C@H](Cc2c[nH]c4ccccc24)NC(=O)[C@H](CCCCN)NC(=O)[C@H](Cc2c[nH]cn2)NC(=O)[C@H]([C@@H](C)O)NC(=O)[C@H](CCCNC(=N)N)NC(=O)[C@H](CO)NC3=O)NC(=O)[C@H](CCCCN)NC(=O)[C@H](CC(=O)O)NC(=O)[C@H](CC(N)=O)NC(=O)[C@H](CC(=O)O)NC(=O)[C@@H]2CCCN2C1=O", "note": "[SEQ ID NO: 128]", "values": [{"measurement": "IC50", "setting": "hNav1.7; [1]", "value": 110, "unit": "nM"}, {"measurement": "IC50", "setting": "hNav1.5; [2]", "value": 6.11, "unit": "µM"}, {"measurement": "IC50", "setting": "hNav1.3; [3]", "value": 50, "unit": "nM"}]}, {"smiles": "CC[C@H](C)[C@@H]1NC(=O)[C@@H]2CSSC[C@@H]3NC(=O)[C@H](C(C)C)NC(=O)[C@H](CC(C)C)NC(=O)[C@H](CC(N)=O)NC(=O)[C@@H]4CCCN4C(=O)[C@H](CCCNC(=N)N)NC(=O)[C@H](CSSC[C@H](NC(=O)[C@@H](N)CC(=O)O)C(=O)N[C@@H](CC(C)C)C(=O)NCC(=O)N[C@@H](Cc4ccccc4)C(=O)N[C@@H](CCSC)C(=O)N[C@@H](CCCNC(=N)N)C(=O)N[C@@H](CCCCN)C(=O)N2)NC(=O)[C@H](CSSC[C@@H](C(=O)N[C@@H](CCCCN)C(N)=O)NC(=O)[C@H](Cc2c[nH]c4ccccc24)NC(=O)[C@H](CCCCN)NC(=O)[C@H](Cc2cnc[nH]2)NC(=O)[C@H]([C@@H](C)O)NC(=O)[C@H](CCCNC(=N)N)NC(=O)[C@H](CO)NC3=O)NC(=O)[C@H](CCCCN)NC(=O)[C@H](CC(=O)O)NC(=O)[C@H](CC(N)=O)NC(=O)[C@H](CC(=O)O)NC(=O)[C@@H]2CCCN2C1=O", "note": "[compound 417] (H-DCLGFMRKCIPDNDKCCRPNLVCSRTHKWCK-NH2; disulfide 2-17, 9-23, 16-30)", "values": [{"measurement": "IC50", "setting": "hNav1.7; IonWorks Quattro, use-dependent, […], read-out: IWQ Use Nav1.7 (μm)", "value": 18300, "unit": "nM"}, {"measurement": "IC50", "setting": "hNav1.5; IWQ Use Nav1.5 (μM)", "value": 11.9, "unit": "µM"}, {"measurement": "IC50", "setting": "hNav1.3; IonWorks Quattro, use-dependent, […], read-out: IWQ Use Nav1.3", "value": 9090, "unit": "nM"}]}, {"smiles": "CC[C@H](C)[C@@H]1NC(=O)[C@@H]2CSSC[C@@H]3NC(=O)[C@H](C(C)C)NC(=O)[C@H](CC(C)C)NC(=O)[C@H](CC(N)=O)NC(=O)[C@@H]4CCCN4C(=O)[C@H](CCCNC(=N)N)NC(=O)[C@H](CSSC[C@H](NC(=O)[C@@H](N)CC(=O)O)C(=O)N[C@@H](CC(C)C)C(=O)NCC(=O)N[C@@H](C)C(=O)N[C@@H](Cc4ccccc4)C(=O)N[C@@H](CCCNC(=N)N)C(=O)N[C@@H](CCCCN)C(=O)N2)NC(=O)[C@H](CSSC[C@@H](C(=O)N[C@@H](CCCCN)C(=O)N[C@@H](Cc2ccc(O)cc2)C(=O)N[C@H](C(=O)N[C@@H](Cc2ccccc2)C(N)=O)C(C)C)NC(=O)[C@H](Cc2c[nH]c4ccccc24)NC(=O)[C@H](CCCNC(=N)N)NC(=O)[C@H](Cc2cnc[nH]2)NC(=O)[C@H](CC(C)C)NC(=O)[C@H](CCCNC(=N)N)NC(=O)[C@H](CO)NC3=O)NC(=O)[C@H](CCCCN)NC(=O)[C@H](CC(=O)O)NC(=O)[C@H](CC(N)=O)NC(=O)[C@H](CC(=O)O)NC(=O)[C@@H]2CCCN2C1=O", "note": "[SEQ ID NO: 262, [Ala5,Phe6,Leu26,Arg28]GpTx-1] (H-DCLGAFRKCIPDNDKCCRPNLVCSRLHRWCKYVF-NH2; disulfide 2-17, 9-23, 16-30)", "values": [{"measurement": "IC50", "setting": "hNav1.7", "value": 50, "unit": "nM"}, {"measurement": "IC50", "setting": "hNav1.5; IWQ Use Nav1.5 (μM)", "value": 5, "unit": "µM"}, {"measurement": "IC50", "setting": "hNav1.3", "value": 40, "unit": "nM"}]}]}
